In one experiment the target is EGFR wild type (Homo sapiens (Human), UniProt P00533). Description: ErbB cellular phosphorylation assay (phospho-EGFR ELISA), HEK-293 cells expressing EGFR wild type, EGF stimulated. To be noted: 1 h treatment. The class given is cell-based. The method, then: HEK-293 cells were engineered to constitutively express ErbB2 mutant L755S or EGFR wild type (constructs obtained from GenScript, Piscataway, NJ). Cells were seeded in poly-D-lysine coated, 96-well plates at a density of 50,000 cells/well in complete medium (DMEM supplemented with 10% fetal bovine serum and G418) and incubated for 24 h at 37° C., 5% CO2 prior to treatment. Cells were treated with compound using three-fold dilutions at final concentrations ranging from […] for 1 h at 37° C., 5% CO2. EGFR-WT cells were stimulated with 500 ng/mL recombinant human EGF (R&D Systems, 236-EG) for an additional 5 min. After compound incubation, medium was removed from the plate, and cells were lysed in buffer containing protease and phosphatase inhibitors ([…]). Cell lysates were analyzed by enzyme-linked immunosorbent assay (ELISA). The ELISAs were performed to measure phosphorylated ErbB2 or phosphorylated EGFR levels, respectively (R&D Systems, DYC-1768, Human Phospho-ErbB2 DuoSet ELISA; DYC1095, Human Phospho-EGFR DuoSet IC ELISA) according to the manufacturer's instructions. Absorbance was measured at 450 nm using a BioTek Cytation 5 plate reader (Agilent, Santa Clara, CA) and IC50 values were calculated using a 4-parameter fit.

For the next experiment, the target named is EGFR WT (Homo sapiens (Human), UniProt P00533). The experiment is described as follows: ErbB enzyme assay (CisBio HTRF-KinEASE-TK), EGFR WT. The class given is biochemical. The conditions noted are these: ATP at Km (25 μM), 1 h incubation. The method in brief: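 Tyrosine kinase HTRF, 1 h RT reaction → quench (Sa-XL665/TK-Ab-Cryptate) → 1 h RT → 655/620 ratio.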

The next experiment concerns the target ErbB2 V777L (Homo sapiens (Human), UniProt P04626, V777L). The experiment is described as follows: ErbB enzyme assay (CisBio HTRF-KinEASE-TK), ErbB2 V777L. The format is biochemical. The method in brief: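 HTRF KinEASE-TK tyrosine-kinase read-out of substrate phosphorylation after a final 1 h at ambient temperature, from the 655/620 nm emission ratio.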

Counter-ions that a name gives are not always drawn. Some results are limits rather than exact numbers.

EGFR WT, sequence (P00533 25-1210): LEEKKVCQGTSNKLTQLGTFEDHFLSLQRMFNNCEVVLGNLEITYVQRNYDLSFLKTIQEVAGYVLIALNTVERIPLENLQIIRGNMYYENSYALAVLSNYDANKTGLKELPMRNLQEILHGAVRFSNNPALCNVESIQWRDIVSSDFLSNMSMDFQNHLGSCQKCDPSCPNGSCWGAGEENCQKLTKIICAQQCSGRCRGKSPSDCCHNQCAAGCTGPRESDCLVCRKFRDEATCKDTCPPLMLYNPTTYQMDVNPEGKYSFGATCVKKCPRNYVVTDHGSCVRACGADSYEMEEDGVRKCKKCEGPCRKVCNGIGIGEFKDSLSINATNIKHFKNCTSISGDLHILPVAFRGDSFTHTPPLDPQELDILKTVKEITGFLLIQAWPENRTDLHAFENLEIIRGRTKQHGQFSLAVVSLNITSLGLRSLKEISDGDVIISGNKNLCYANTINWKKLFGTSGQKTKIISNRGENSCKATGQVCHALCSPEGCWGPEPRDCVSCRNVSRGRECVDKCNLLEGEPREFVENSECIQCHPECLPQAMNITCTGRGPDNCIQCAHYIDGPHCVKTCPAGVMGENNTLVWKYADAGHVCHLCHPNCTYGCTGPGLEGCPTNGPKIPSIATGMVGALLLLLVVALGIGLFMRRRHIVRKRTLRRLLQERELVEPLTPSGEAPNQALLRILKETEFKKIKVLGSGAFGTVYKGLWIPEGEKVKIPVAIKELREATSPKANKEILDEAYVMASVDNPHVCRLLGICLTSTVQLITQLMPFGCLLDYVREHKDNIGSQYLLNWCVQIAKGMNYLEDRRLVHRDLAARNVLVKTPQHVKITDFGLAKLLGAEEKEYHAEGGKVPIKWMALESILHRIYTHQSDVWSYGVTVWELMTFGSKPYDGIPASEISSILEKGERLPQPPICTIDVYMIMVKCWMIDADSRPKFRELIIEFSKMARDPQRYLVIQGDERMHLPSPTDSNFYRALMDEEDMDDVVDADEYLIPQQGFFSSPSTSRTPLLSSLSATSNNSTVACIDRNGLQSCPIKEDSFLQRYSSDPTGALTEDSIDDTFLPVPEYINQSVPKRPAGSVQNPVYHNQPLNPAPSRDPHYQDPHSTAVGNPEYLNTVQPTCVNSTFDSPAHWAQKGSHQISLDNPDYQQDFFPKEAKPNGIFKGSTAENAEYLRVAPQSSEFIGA
EGFR wild type, sequence (P00533 25-1210): as above
ErbB2 V777L, sequence (P04626 23-1255 V777L): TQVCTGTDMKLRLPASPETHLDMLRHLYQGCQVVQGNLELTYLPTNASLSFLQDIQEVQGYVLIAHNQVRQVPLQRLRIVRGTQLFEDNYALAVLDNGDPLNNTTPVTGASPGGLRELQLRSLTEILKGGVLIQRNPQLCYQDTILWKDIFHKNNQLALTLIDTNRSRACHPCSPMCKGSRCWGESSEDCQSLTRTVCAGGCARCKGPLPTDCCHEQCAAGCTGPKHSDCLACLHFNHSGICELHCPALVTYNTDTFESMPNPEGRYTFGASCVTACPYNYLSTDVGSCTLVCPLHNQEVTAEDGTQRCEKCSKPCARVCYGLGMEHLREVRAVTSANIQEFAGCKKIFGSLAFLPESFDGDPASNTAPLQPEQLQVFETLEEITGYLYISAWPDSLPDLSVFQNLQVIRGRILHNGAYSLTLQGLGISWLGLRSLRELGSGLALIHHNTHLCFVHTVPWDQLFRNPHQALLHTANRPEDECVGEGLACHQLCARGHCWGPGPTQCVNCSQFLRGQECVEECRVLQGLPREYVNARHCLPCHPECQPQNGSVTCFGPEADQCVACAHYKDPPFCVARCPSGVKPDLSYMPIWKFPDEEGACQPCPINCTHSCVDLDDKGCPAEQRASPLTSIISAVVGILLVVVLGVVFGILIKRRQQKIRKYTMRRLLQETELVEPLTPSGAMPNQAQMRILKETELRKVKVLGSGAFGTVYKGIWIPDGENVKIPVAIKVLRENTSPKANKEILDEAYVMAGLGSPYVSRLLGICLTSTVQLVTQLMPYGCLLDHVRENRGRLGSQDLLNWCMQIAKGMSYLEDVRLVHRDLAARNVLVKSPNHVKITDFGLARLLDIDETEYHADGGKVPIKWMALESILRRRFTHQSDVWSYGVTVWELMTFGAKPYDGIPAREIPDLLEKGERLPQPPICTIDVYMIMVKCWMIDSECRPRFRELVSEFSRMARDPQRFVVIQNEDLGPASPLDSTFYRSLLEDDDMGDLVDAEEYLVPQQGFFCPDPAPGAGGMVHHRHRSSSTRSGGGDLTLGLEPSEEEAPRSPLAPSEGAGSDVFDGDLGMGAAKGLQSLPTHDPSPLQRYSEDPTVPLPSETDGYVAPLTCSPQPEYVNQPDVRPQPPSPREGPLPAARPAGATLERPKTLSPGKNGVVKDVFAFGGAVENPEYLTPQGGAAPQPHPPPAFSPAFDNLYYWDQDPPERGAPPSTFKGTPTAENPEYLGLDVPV

On to `C=CC(=O)N1CCN(c2ccc3ncnc(Nc4ccc(Oc5ccc6c(c5)nnn6C)c(C)c4F)c3n2)CC1` [Compound 95, 1-(4-(4-((2-fluoro-3-methyl-4-((1-methyl-1H-benzo[d][1,2,3]triazol-5-yl)oxy)phenyl)amino)pyrido[3,2-d]pyrimidin-6-yl)piperazin-1-yl)prop-2-en-1-one], for which the IC50 was not below 5 µM against EGFR wild type and less than 50 nM against EGFR WT.
`C=CC(=O)N1CC=C(c2ccc3ncnc(Nc4ccc(Oc5ccc6c(c5)nnn6C)c(C)c4)c3n2)CC1` [Compound 109, 1-(4-(4-((3-methyl-4-((1-methyl-1H-benzo[d][1,2,3]triazol-5-yl)oxy)phenyl)amino)pyrido[3,2-d]pyrimidin-6-yl)-3,6-dihydropyridin-1(2H)-yl)prop-2-en-1-one trifluoroacetate]: the IC50 is not below 5 µM against EGFR wild type and 100 to 500 nM at EGFR WT.
On the same counts, the results for `C=CC(=O)N1CCN(c2ncc3ncnc(Nc4cc(C)c(Oc5ccc6c(c5)ncn6C)cc4OC)c3n2)CC1` [Compound 11, 1-(4-(8-((2-methoxy-5-methyl-4-((1-methyl-1H-benzo[d]imidazol-5-yl)oxy)phenyl)amino)pyrimido[5,4-d]pyrimidin-2-yl)piperazin-1-yl)prop-2-en-1-one 2,2,2-trifluoroacetate] are not below 5 µM and 100 to 500 nM.
For `C=CC(=O)N1CCN(c2ccc3ncnc(Nc4ccc(Oc5ccc6c(c5)nnn6C)c(C)c4)c3n2)[C@@H](C)C1` [Compound 90, (S)-1-(3-methyl-4-(4-((3-methyl-4-((1-methyl-H-benzo[d][1,2,3]triazol-5-yl)oxy)phenyl)amino)pyrido[3,2-d]pyrimidin-6-yl)piperazin-1-yl)prop-2-en-1-one 2,2,2-trifluoroacetate] the same measures were not below 5 µM and 100 to 500 nM.
For `C=CC(=O)N1C2CCC1CN(c1ncc3ncnc(Nc4cc(C)c(Oc5cc(F)c6c(c5)ncn6C)cc4OC)c3n1)C2` [Compound 42, 1-(3-(8-((4-((7-fluoro-1-methyl-1H-benzo[d]imidazol-5-yl)oxy)-2-methoxy-5-methylphenyl)amino)pyrimido[5,4-d]pyrimidin-2-y1)-3,8-diazabicyclo[3.2.1]octan-8-yl)prop-2-en-1-one] the same measures were not below 5 µM and 100 to 500 nM.
Consider `C=CC(=O)N1CCN(c2ncc3ncnc(Nc4ccc(Oc5ccc6c(c5)nnn6C)c(C)c4)c3n2)C[C@@H]1CO` [Compound 25, (R)-1-(2-(hydroxymethyl)-4-(8-((3-methyl-4-((1-methyl-1H-benzo[d][1,2,3]triazol-5-yl)oxy)phenyl)amino)pyrimido[5,4-d]pyrimidin-2-y1)piperazin-1-yl)prop-2-en-1-one], for which the 50% inhibitory concentration (IC50) was not below 5 µM on EGFR wild type and 100 to 500 nM against EGFR WT.
For `C=CC(=O)N1CCN(c2ncc3ncnc(Nc4ccc(Oc5ccc6c(c5)ncn6C(F)F)c(C)c4F)c3n2)CC1` [Compound 21, 1-(4-(8-((4-((1-(difluoromethyl)-1H-benzo[d]imidazol-5-y1)oxy)-2-fluoro-3-methylphenyl)amino)pyrimido[5,4-d]pyrimidin-2-yl)piperazin-1-yl)prop-2-en-1-one] the same measures were 1 to 5 µM and less than 50 nM.
On the same counts, the results for `C=CC(=O)N1CC=C(c2ccc3ncnc(Nc4ccc(Oc5ccc6c(c5)nnn6C)c(C)c4)c3n2)C1` [Compound 110, 1-(3-(4-((3-methyl-4-((1-methyl-1H-benzo[d][1,2,3]triazol-5-yl)oxy)phenyl)amino)pyrido[3,2-d]pyrimidin-6-yl)-2,5-dihydro-1H-pyrrol-1-yl)prop-2-en-1-one] are not below 5 µM and 50 to 100 nM.
On the same counts, the results for `C=CC(=O)N1C2CCC1CN(c1ccc3ncnc(Nc4ccc(Oc5ccc6c(c5)nnn6C)c(C)c4)c3n1)C2` [Compound 70, 1-(3-(4-((3-methyl-4-((1-methyl-1H-benzo[d][1,2,3]triazol-5-yl)oxy)phenyl)amino)pyrido[3,2-d]pyrimidin-6-yl)-3,8-diazabicyclo[3.2.1]octan-8-yl)prop-2-en-1-one] are 1 to 5 µM and 100 to 500 nM.
As for `C=CC(=O)N1CCN(c2ncc3ncnc(Nc4ccc(Oc5cc(F)c6c(c5)nnn6C)c(C)c4)c3n2)CC1` [Compound 4, 1-(4-(8-((4-((7-fluoro-1-methyl-1H-benzo[d][1,2,3]triazol-5-yl)oxy)-3-methylphenyl)amino)pyrimido[5,4-d]pyrimidin-2-yl)piperazin-1-yl)prop-2-en-1-one], the IC50 is 1 to 5 µM on EGFR wild type and less than 50 nM on EGFR WT.
`C=C(COC)C(=O)N1CCN(c2ccc3ncnc(Nc4ccc(Oc5ccc6c(c5)nnn6C)c(C)c4)c3n2)CC1` [Compound 366, 2-(methoxymethyl)-1-(4-(4-((3-methyl-4-((1-methyl-1H-benzo[d][1,2,3]triazol-5-yl)oxy)phenyl)amino)pyrido[3,2-d]pyrimidin-6-yl)piperazin-1-yl)prop-2-en-1-one]: the figures for the half-maximal inhibitory concentration (IC50) at EGFR WT and on ErbB2 V777L were not below 1000 nM and 500 to 1000 nM, respectively.
On the same counts, the results for `C=CC(=O)N1CC=C(c2ncc3ncnc(Nc4ccc(Oc5ccn6ncnc6c5)c(C)c4F)c3n2)C[C@@H]1C` [Compound 404, (S)-1-(4-(8-((4-([1,2,4]triazolo[1,5-a]pyridin-7-yloxy)-2-fluoro-3-methylphenyl)amino)pyrimido[5,4-d]pyrimidin-2-yl)-2-methyl-3,6-dihydropyridin-1(2H)-yl)prop-2-en-1-one] are 100 to 500 nM and 100 to 500 nM.
As for `C=CC(=O)N(C)CCN(C)c1ccc2ncnc(Nc3ccc(Oc4ccc5c(c4)nnn5C)c(C)c3)c2n1` [Compound 76, N-methyl-N-(2-(methyl(4-((3-methyl-4-((1-methyl-1H-benzo[d][1,2,3]triazol-5-yl)oxy)phenyl)amino)pyrido[3,2-d]pyrimidin-6-yl)amino)ethyl)acrylamide], the IC50 against EGFR WT fell in the range of 500 to 1000 nM; against ErbB2 V777L, 100 to 500 nM.
On to `C=CC(=O)N1CC2CC(C1)N2c1ncc2ncnc(Nc3ccc(Oc4ccc5c(c4)nnn5C)c(C)c3)c2n1` [Compound 16, 1-(6-(8-((3-methyl-4-((1-methyl-1H-benzo[d][1,2,3]triazol-5-yl)oxy)phenyl)amino)pyrimido[5,4-d]pyrimidin-2-yl)-3,6-diazabicyclo[3.1.1]heptan-3-yl)prop-2-en-1-one], for which the IC50 against EGFR WT and against ErbB2 V777L was 100 to 500 nM in each case.
With `C=CC(=O)N1C[C@@H]2CCN(c3ccc4ncnc(Nc5ccc(Oc6ccc7c(c6)nnn7C)c(C)c5)c4n3)[C@@H]2C1` (stereo in doubt) [Compound 314, 1-(1-(4-((3-methyl-4-((1-methyl-1H-benzo[d][1,2,3]triazol-5-yl)oxy)phenyl)amino)pyrido[3,2-d]pyrimidin-6-yl)hexahydropyrrolo[3,4-b]pyrrol-5(1H)-y1)prop-2-en-1-one], the IC50 on EGFR WT was 100 to 500 nM; against ErbB2 V777L, 50 to 100 nM.
